Source: ChEMBL document CHEMBL1137549, “1-Aminocyclopentane-1,2,4-tricarboxylic acids screening on glutamatergic and serotonergic systems” (Bioorg Med Chem, 2007)
Activity calls are given as the source filed them. No cut-off for these calls is given here.

Tests used:
[1] = target: Metabotropic glutamate receptor 1 (Homo sapiens) (UniProt Q13255); assay: Antagonist activity at mGluR1 expressed in CHO cells assessed as inhibition of glutamate stimulated phosphatidyl inositol hydrolysis at 10 uM; assay type: functional, cell-based
Chain of Metabotropic glutamate receptor 1 (Homo sapiens) (Q13255 19-1194 limits assumed): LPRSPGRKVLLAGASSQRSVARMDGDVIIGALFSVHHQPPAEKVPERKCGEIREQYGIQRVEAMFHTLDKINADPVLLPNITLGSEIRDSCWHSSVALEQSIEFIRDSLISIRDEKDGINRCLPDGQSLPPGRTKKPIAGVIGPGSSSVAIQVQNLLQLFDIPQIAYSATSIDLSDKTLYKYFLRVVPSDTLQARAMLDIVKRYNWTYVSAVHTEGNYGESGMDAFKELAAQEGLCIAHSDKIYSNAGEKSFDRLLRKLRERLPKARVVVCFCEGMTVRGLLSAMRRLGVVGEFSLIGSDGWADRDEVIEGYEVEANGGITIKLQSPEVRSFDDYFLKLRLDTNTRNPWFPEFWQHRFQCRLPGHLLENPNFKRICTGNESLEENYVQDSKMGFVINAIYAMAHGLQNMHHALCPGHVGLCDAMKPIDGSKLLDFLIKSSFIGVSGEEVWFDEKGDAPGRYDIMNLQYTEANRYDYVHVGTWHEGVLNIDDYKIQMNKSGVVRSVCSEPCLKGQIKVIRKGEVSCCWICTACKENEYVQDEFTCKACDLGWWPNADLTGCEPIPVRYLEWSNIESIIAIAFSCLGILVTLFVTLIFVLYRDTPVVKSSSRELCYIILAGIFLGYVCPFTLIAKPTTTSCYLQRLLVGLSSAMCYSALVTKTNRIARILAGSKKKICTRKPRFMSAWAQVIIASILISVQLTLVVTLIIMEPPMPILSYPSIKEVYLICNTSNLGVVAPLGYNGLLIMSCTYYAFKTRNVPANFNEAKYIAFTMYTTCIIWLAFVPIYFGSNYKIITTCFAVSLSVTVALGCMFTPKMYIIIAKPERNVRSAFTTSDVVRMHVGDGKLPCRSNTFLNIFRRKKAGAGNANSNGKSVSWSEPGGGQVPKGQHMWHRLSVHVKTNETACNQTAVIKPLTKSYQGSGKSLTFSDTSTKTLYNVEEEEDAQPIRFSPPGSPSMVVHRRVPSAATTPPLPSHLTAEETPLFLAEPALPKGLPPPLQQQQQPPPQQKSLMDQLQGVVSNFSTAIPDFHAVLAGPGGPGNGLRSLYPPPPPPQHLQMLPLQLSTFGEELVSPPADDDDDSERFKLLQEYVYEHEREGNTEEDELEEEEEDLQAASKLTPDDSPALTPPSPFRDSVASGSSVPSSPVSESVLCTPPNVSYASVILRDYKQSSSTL

[2] = target: Metabotropic glutamate receptor 6 (Homo sapiens) (UniProt O15303); assay: Agonist activity at mGluR6 expressed in CHO cells assessed as decrease in cAMP accumulation at 10 uM; assay type: functional, cell-based; parameters: scale not given: the % may be the effect or the level left
Chain of Metabotropic glutamate receptor 6 (Homo sapiens) (O15303 whole entry): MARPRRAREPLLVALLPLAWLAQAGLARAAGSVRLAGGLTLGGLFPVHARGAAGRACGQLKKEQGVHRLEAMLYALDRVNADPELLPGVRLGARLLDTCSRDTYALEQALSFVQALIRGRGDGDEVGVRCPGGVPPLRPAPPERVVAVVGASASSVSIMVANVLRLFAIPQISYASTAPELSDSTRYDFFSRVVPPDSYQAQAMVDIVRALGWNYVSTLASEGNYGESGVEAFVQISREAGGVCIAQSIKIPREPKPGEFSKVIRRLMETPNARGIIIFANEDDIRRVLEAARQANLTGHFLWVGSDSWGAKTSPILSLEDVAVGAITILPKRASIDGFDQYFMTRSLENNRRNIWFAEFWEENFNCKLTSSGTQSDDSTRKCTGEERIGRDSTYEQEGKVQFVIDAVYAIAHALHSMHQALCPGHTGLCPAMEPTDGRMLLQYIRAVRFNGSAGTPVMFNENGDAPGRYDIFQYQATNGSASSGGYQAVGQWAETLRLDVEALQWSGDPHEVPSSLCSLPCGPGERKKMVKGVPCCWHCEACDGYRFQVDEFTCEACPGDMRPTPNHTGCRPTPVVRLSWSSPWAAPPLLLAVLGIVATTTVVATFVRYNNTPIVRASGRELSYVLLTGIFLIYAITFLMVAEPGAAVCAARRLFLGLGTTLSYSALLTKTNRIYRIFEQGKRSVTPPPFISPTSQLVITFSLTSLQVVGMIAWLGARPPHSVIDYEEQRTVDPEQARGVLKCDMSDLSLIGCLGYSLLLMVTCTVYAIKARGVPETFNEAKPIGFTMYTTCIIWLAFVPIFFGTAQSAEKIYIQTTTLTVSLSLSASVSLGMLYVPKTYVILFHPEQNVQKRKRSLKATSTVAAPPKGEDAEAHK

[3] = target: 5-hydroxytryptamine receptor 2A (Rattus norvegicus, UniProt P14842); assay: Displacement of [3H]ketanserin from 5HT2A receptor in rat cortex membrane; assay type: cell membranes
Chain of 5-hydroxytryptamine receptor 2A (P14842 whole entry): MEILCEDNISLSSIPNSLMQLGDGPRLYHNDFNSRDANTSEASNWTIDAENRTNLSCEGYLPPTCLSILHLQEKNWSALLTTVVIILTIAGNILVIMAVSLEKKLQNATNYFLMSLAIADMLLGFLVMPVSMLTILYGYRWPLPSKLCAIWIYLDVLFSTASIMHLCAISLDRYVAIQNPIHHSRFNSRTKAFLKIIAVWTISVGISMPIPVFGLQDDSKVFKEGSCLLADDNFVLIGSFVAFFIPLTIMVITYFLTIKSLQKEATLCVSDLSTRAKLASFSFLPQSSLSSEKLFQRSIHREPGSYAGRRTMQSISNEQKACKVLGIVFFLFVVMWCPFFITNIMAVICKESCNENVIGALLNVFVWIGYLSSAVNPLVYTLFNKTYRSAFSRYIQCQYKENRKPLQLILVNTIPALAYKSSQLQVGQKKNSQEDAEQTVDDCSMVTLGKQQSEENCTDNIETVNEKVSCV

[4] = target: Metabotropic glutamate receptor 2 (Homo sapiens) (UniProt Q14416); assay: Agonist activity at mGluR2 expressed in CHO cells assessed as decrease in cAMP accumulation at 10 uM; assay type: functional, cell-based; parameters: scale not given: the % may be the effect or the level left
Chain of Metabotropic glutamate receptor 2 (Homo sapiens) (Q14416 19-872 limits assumed): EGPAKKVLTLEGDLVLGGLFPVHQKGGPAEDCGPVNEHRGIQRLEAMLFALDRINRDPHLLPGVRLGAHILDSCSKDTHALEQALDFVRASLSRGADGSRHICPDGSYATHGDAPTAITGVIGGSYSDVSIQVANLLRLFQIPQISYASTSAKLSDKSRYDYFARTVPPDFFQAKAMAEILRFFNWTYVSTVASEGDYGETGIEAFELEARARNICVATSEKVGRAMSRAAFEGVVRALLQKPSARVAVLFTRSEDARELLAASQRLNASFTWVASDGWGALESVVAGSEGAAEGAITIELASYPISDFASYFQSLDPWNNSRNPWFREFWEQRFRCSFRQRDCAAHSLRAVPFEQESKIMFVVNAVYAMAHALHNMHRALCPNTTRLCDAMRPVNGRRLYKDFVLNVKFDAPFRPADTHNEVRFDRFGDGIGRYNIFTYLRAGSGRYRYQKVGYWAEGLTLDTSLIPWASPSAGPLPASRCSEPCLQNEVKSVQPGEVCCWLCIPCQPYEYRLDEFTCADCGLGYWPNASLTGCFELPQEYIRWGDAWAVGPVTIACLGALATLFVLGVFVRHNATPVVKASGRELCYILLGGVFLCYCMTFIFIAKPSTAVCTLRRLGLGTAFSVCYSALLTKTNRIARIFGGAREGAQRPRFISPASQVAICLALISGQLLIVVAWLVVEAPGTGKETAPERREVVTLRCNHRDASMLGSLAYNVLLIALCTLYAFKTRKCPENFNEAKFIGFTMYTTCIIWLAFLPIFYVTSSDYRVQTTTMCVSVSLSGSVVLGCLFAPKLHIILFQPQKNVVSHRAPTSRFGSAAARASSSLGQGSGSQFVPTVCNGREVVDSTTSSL

[5] = target: Metabotropic glutamate receptor 6 (Homo sapiens) (UniProt O15303); assay: Antagonist activity at mGluR6 expressed in CHO cells assessed as inhibition of AP4-induced cAMP accumulation at 10 uM; assay type: functional, cell-based
[6] = target: Sodium-dependent serotonin transporter (Homo sapiens, UniProt P31645); assay type: cell membranes
Chain of Sodium-dependent serotonin transporter (P31645 whole entry): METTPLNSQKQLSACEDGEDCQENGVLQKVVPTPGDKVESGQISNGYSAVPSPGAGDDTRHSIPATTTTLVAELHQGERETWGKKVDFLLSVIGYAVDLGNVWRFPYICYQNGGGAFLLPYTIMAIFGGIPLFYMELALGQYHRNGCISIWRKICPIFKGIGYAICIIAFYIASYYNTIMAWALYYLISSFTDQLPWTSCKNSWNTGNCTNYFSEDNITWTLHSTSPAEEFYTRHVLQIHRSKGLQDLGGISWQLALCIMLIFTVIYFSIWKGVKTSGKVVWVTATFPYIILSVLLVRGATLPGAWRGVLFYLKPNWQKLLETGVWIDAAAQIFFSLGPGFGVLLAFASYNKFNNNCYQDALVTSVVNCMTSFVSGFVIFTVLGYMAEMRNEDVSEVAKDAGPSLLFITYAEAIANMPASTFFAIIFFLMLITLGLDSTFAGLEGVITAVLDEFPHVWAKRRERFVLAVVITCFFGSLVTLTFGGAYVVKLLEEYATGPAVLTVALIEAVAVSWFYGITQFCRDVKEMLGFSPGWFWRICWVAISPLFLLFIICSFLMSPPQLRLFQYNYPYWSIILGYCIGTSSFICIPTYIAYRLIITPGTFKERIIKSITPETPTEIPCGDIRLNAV

[7] = target: Metabotropic glutamate receptor 1 (Homo sapiens) (UniProt Q13255); assay: Agonist activity at mGluR1 expressed in CHO cells assessed as stimulation of phosphatidyl inositol hydrolysis at 10 uM; assay type: functional, cell-based
[8] = target: Metabotropic glutamate receptor 2 (Homo sapiens) (UniProt Q14416); assay: Antagonist activity at mGluR2 expressed in CHO cells assessed as inhibition of glutamate-induced cAMP accumulation at 10 uM; assay type: functional, cell-based
[9] = target: T1, 5-hydroxytryptamine receptor 1A (Rattus norvegicus, UniProt P19327); assay: Displacement of [3H]8-OH-DPAT from 5HT1A receptor in rat cortex membrane; assay type: cell membranes
T1 sequence (P19327 whole entry): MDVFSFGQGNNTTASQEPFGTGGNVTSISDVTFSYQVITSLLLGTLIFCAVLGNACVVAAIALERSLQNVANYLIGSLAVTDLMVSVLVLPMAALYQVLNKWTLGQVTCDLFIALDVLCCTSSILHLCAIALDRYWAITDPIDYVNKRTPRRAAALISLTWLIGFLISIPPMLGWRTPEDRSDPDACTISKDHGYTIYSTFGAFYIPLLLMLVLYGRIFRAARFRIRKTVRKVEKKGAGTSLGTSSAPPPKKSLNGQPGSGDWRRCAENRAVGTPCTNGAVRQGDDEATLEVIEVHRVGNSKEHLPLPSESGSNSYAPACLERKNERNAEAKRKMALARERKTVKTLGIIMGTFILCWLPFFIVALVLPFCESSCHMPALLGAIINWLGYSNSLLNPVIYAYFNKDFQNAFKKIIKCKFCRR

[10] = target: Metabotropic glutamate receptor 6 (Homo sapiens) (UniProt O15303); assay: Antagonist activity at mGluR6 expressed in CHO cells assessed as inhibition of forskolin stimulated cAMP accumulation at 10 uM; assay type: functional, cell-based
[11] = target: Metabotropic glutamate receptor 2 (Homo sapiens) (UniProt Q14416); assay: Antagonist activity at mGluR2 expressed in CHO cells assessed as inhibition of forskolin stimulated cAMP accumulation at 10 uM; assay type: functional, cell-based

| Activity [1] | Activity [2] | Ki [3] [µM] | Activity [4] | Activity [5] | Ki [6] [µM] | Activity [7] | Activity [8] | Ki [9] [µM] | Activity [10] | Activity [11] | Compound |
| --- | --- | --- | --- | --- | --- | --- | --- | --- | --- | --- | --- |
| inactive | 30% | > 50 | 30% | inactive | > 50 | inactive | inactive | > 50 | – | – | N[C@@]1(C(=O)O)C[C@@H](C(=O)O)C[C@H]1C(=O)O |
| inactive | inactive | > 50 | inactive | inactive | 10 | inactive | inactive | > 50 | inactive | inactive | N[C@]1(C(=O)O)C[C@@H](C(=O)O)C[C@H]1C(=O)O |
| inactive | inactive | > 50 | inactive | inactive | > 50 | inactive | inactive | > 50 | inactive | inactive | N[C@@]1(C(=O)O)C[C@H](C(=O)O)C[C@@H]1C(=O)O |
| inactive | inactive | > 50 | inactive | inactive | > 50 | inactive | inactive | > 50 | inactive | inactive | N[C@]1(C(=O)O)C[C@H](C(=O)O)C[C@@H]1C(=O)O |
